# Measured values published in patent US20180050040A1, “USE OF 4-(4-FLUORO-2-METHOXYPHENYL)-N--1,3,5-TRIAZIN-2-AMINE FOR TREATING LYMPHOMAS” (Bayer Pharma Aktiengesellschaft, priority 2015, published 2018).
# “And” between values parts separate entries of the source, which are not always exact repeats. Equal entries are not always repeated.
# Legend:
# ATL tumor cells (S-YU) [1] = experiment: ATL cell-bearing NOG mice treated for 21 days, survival times; format: in vivo
# Description: (§1) NOD/Shi-scid, IL-2Rγ^null (NOG) mice were purchased from the Central Institute for Experimental Animals (Kanagawa, Japan) and used at between 6-8 weeks of age.
# ATL cells from intraperitoneal masses suspended in RPMI-1640 were also inoculated i.p. into another 14 naive NOG mice at 1.0×10^7 cells per mouse. These animals were randomly divided into two groups of seven each for treatment with Compound A′ or vehicle. Compound A′ was formulated in the same manner, and mice were treated by oral application of 12.5 mg/kg Compound A′ or vehicle, once daily for 21 days (7-27 days after ATL cell inoculations). The therapeutic efficacy of Compound A′ was evaluated according to survival times.
# (§2) Differences between groups regarding the percentage of ATL cells in mouse liver and bone marrow cell suspensions, and human sIL2R concentrations in mouse sera, were examined using a Mann-Whitney U test. Mouse survival analyses were done by Kaplan-Meier method, and survival curves were compared using the log-rank test. All analyses were performed using SPSS Statistics 17.0 software (SPSS Inc., Chicago, Ill.). In this study, P<0.05 was considered significant.
# S-YU = experiment: Cell proliferation assay (CellTiter Glo), S-YU with IL-2; format: cell-based; conditions: ATL, after 24 hours of incubation, IL-2 100 IU/mL
# Description: (§3) The proliferation of all lymphoma cell lines, other than S-YU, in the presence of different concentrations of Compound A′ for 72 h was assessed using CellTiter Glo kits (Promega Corporation, Madison, Wis.). Proliferation of S-YU in the presence of recombinant human interleukin-2 (IL-2) at a final concentration of 100 IU/mL, with different concentrations of Compound A′ for 24 h, was assessed in the same manner. All expressed values were averages of triplicate experiments, and IC50 was calculated using GraphPad Prism 5 (GraphPad Software, San Diego, Calif.) according to the manufacturer's instructions or the MTS software.
# [2] = system: DLBCL OCI-LY-7 xenografts; experiment: In vivo efficacy and tolerability in DLBCL OCI-LY-7 tumour model subcutaneously implanted in NOG mice; conditions: 25 mg/kg/day p.o.
# Description: The aim of the present experiments was to assess the in vivo efficacy and tolerability of Compound A′ in monotherapy in the DLBCL OCI-LY-7 tumour model subcutaneously implanted in NOG mice.
# In vivo efficacy was determined in female NOG mice bearing subcutaneous DLBCL OCI-LY-7 xenografts. Compound A′ was assessed at one dose level in monotherapy. Anti-tumour activity and tolerability of the treated group was assessed using the vehicle control group as a reference.
# Mouse strain, sex: NOG, female Animals supplied by: Taconic, Denmark Approximate age at implantation: 5-7 weeks
# DLBCL tumour fragments, derived from the OCI-LY-7 cell line, were obtained from xenografts in serial passage in nude mice and placed in PBS containing 10% penicillin/streptomycin. Tumour fragments (one fragment per animal; 3-4 mm edge length) were then subcutaneously implanted in the flank of NOG recipient mice under isofluorane anaesthesia.
# At randomisation, the volume of growing tumours was initially determined. […] The result of the randomisation was documented and maintained with the experimental data. Animals not randomised were euthanised. The day of randomisation is designated as day 0 of an experiment.
# Vehicle: 80% (m/V) PEC400 in water for injection Compound A′: preparation of a dosing solution (2.5 mg/ml) once weekly by diluting the Compound A′ powder at 0.25% (w/v) in vehicle; storage of the dosing solution at 4° C.; dosing volume 10 ml/kg
# Mortality checks were conducted daily during routine monitoring.
# Mice were weighed twice a week. Relative body weights of individual mice in % were calculated by dividing the individual body weight on day X (BWX) by the individual body weight on day 0 (BW0) multiplied by 100 according to the formula: […]
# Group median relative body weights were calculated as well, considering only the weights of mice that were alive on the day in question.
# The tumour volumes were determined by two-dimensional measurement with a caliper on the day of randomisation (day 0) and then twice weekly (i.e. on the same days on which mice were weighed). Tumour volumes were calculated according to the formulas:
# Tumour volume=(a×b^2)×0.5
# Relative volumes of individual tumours (RTVs) for Day x were calculated by dividing the absolute individual tumour volume on Day x (Tx) by the absolute individual tumour volume of the same tumour on Day 0 (T0) multiplied by 100%:
# Anti-tumour activity was evaluated as maximum tumour volume inhibition versus the vehicle control group.
# Tumour inhibition for a particular day (T/C in %) was calculated from the ratio of the median RTV values of test versus control groups multiplied by 100.
# The minimum (or optimum) T/C % value recorded for a particular test group during an experiment represents the maximum anti-tumour activity for the respective treatment. T/C values were calculated if at least 50% of the randomised animals in a group were alive on the day in question.
# Group optimum T/C values (in %) were used for activity rating as follows: […]
# ATL tumor cells (S-YU) [3] = experiment: ATL cell-bearing NOG mice treated for 18 days, efficacy evaluated 25 days after inoculation; format: in vivo; conditions: 12.5 mg/kg p.o. once daily 18 days
# Description: as §1
# A leukemic cell clone from a patient with ATL, which could be serially transplanted into SCID mice and was designated S-YU as reported previously (Eur J Haematol. 2014; 92(3):219-228), was injected intraperitoneally (i.p.) into NOG mice. Three to four weeks after i.p. injection, NOG mice developed intraperitoneal masses within the mesentery. Cells from these intraperitoneal masses were suspended in RPMI-1640 and inoculated i.p. into healthy NOG mice, which then presented with disease features identical to those of the original mice. ATL tumor cells (S-YU) from the intraperitoneal masses were suspended in RPMI-1640, and 1.0×10^7 cells were inoculated i.p. into each of 16 naive NOG mice. The animals were randomly divided into two groups of eight each for treatment with Compound A′ or vehicle, seven days after ATL cell inoculations. Compound A′ was formulated in 40% PEG400 in water at a final concentration of 2.5 mg/mL. Mice were treated by oral application of 12.5 mg/kg Compound A′ (0.25 mg/100 μL per mouse) or vehicle (100 μL), once daily for 18 days (7-24 days after ATL cell inoculations). Therapeutic efficacy was then evaluated 25 days after ATL cell inoculations.
# The concentration of human soluble IL-2 receptor (sIL2R) in mouse serum was measured by enzyme-linked immunosorbent assay (ELISA) using a human sIL2R immunoassay kit (R&D Systems, Minneapolis, Minn.) according to the manufacturer's instructions. All expressed values were averages of triplicate experiments.
# as §2
# ATN-1 = experiment: Cell proliferation assay (CellTiter Glo); format: cell-based; conditions: Homo sapiens; ATN-1, ATL; 72 h
# Description: as §3
# OCI-LY-19 = experiment: Cell proliferation assay (CellTiter Glo); format: cell-based; conditions: Homo sapiens, OCI-LY19; OCI-LY-19, DLBCL, GCB subtype; 72 h
# Description: as §3
# SU-DHL-6 = experiment: Cell proliferation assay (CellTiter Glo); format: cell-based; conditions: Homo sapiens; SU-DHL-6, DLBCL, GCB subtype; 72 h
# Description: as §3
# Ramos = experiment: Cell proliferation assay (CellTiter Glo); format: cell-based; conditions: Homo sapiens, Burkitt's lymphoma, 72 h
# Description: as §3
# TL-SU = experiment: Cell proliferation assay (CellTiter Glo); format: cell-based; conditions: HTLV-1-immortalized cell line, 72 h
# Description: as §3
# DB = experiment: Cell proliferation assay (CellTiter Glo); format: cell-based; conditions: Homo sapiens, DLBCL, GCB subtype, 72 h
# Description: as §3
# MT-2 = experiment: Cell proliferation assay (CellTiter Glo); format: cell-based; conditions: Homo sapiens, MT2; MT-2, HTLV-1-immortalized cell line; 72 h
# Description: as §3
# MT-4 = experiment: Cell proliferation assay (CellTiter Glo); format: cell-based; conditions: Homo sapiens, MT4; MT-4, HTLV-1-immortalized cell line; 72 h
# Description: as §3
# MJ = experiment: Cell proliferation assay (CellTiter Glo); format: cell-based; conditions: ATL, 72 h
# Description: as §3
# SU-DHL-8 = experiment: Cell proliferation assay (CellTiter Glo); format: cell-based; conditions: Homo sapiens; SU-DHL-8, DLBCL, GCB subtype; 72 h
# Description: as §3
# HBL1 = experiment: Cell proliferation assay (CellTiter Glo); format: cell-based; conditions: HBL1, DLBCL, ABC subtype; 72 h
# Description: as §3
# MT-1 = experiment: Cell proliferation assay (CellTiter Glo); format: cell-based; conditions: MT-1, ATL; 72 h
# Description: as §3
# SU-DHL-4 = experiment: Cell proliferation assay (CellTiter Glo); format: cell-based; conditions: Homo sapiens; SU-DHL-4, DLBCL, GCB subtype; 72 h
# Description: as §3
# HT = experiment: Cell proliferation assay (CellTiter Glo); format: cell-based; conditions: Homo sapiens, DLBCL, GCB subtype, 72 h
# Description: as §3
# Jeko-1 = experiment: Cell proliferation assay (CellTiter Glo); format: cell-based; conditions: Homo sapiens; Jeko-1, Mantle cell lymphoma; 72 h
# Description: as §3
# TL-Om1 = experiment: Cell proliferation assay (CellTiter Glo); format: cell-based; conditions: TL-Om1, ATL; 72 h
# Description: as §3
# OCI-LY-3 = experiment: Cell proliferation assay (CellTiter Glo); format: cell-based; conditions: Homo sapiens, OCI-Ly3; OCI-LY-3, DLBCL, ABC subtype; 72 h
# Description: as §3
# KM-H2 = experiment: Cell proliferation assay (CellTiter Glo); format: cell-based; conditions: Homo sapiens; KM-H2, Hodgkin lymphoma; 72 h
# Description: as §3
# SU-DHL-10 = experiment: Cell proliferation assay (CellTiter Glo); format: cell-based; conditions: Homo sapiens, SU-DHL10; SU-DHL-10, DLBCL, GCB subtype; 72 h
# Description: as §3
# Karpas422 = experiment: Cell proliferation assay (CellTiter Glo); format: cell-based; conditions: Homo sapiens, KARPAS-422; Karpas422, Follicular lymphoma; 72 h
# Description: as §3
# [4] = OCI-LY-7 xenograft-bearing NOG mice, days 0-27
# [5] = individual treated NOG mice 1-8, 25 days after inoculation, 12.5 mg/kg
smiles,measurement,setting,value
"COc1cc(F)ccc1-c1ncnc(Nc2cccc(CS(C)(=N)=O)c2)n1 (single isomer, unassigned; (+)) [Compound A′, (+)-4-(4-Fluoro-2-methoxyphenyl)-N-{3-[(S-methylsulfonimidoyl)methyl]phenyl}-1,3,5-triazin-2-amine]",Toxicity attributable to compound,"ATL tumor cells (S-YU) [1]; ATL cell-bearing NOG mice, 12.5 mg/kg p.o. once daily, during the study period",not observed
same,survival of ATL cell-bearing mice,"ATL tumor cells (S-YU) [1]; thirty-eight days after ATL cell inoculation, 12.5 mg/kg p.o. once daily 21 days, n=7",all alive
same,IC50,S-YU,2960 nM
same,OCI-LY-7 tumour growth compared to vehicle control group,[2]; Mann-Whitney-Wilcoxon U-test,significantly reduced
same,Activity Rating,"[2]; OCI-LY-7 in NOG mice, days 0-27",++++ (Complete remission T/C < 5%)
same,Min. T/C [%] (Day),"[2]; OCI-LY-7 in NOG mice, days 0-27, minimum on day 19, 25 mg/kg/day",2.6% and 2.6 (19) %
same,Survival rate,[2]; [4],80%
same,median BWL (body weight loss),[2]; [4],17.9%
same,tolerability profile,[2]; lymphoma xenograft bearing mice,acceptable tolerability profile
same,"percentage of ATL cells (human CD45-positive, CD4-positive, CD8-negative) in bone marrow cell suspension",ATL tumor cells (S-YU) [3]; [5],0.01% (4×) and 0.02% (2×) and 0.72% and < 0.01%
same,"percentage of ATL cells (human CD45-positive, CD4-positive, CD8-negative) in liver cell suspension",ATL tumor cells (S-YU) [3]; [5],0.9% and 1.6% and 1.0% and 0.4% and 2.2% and 1.1% and 0.6% and 0.5%
same,"concentration of human sIL2R in serum, mean","ATL tumor cells (S-YU) [3]; treated NOG mice 1-8, ELISA",84500 pg/mL
same,"concentration of human sIL2R in serum, median","ATL tumor cells (S-YU) [3]; treated NOG mice 1-8, ELISA",84900 pg/mL
same,"concentration of human sIL2R in serum, range","ATL tumor cells (S-YU) [3]; treated NOG mice 1-8, ELISA",69.0-97.4 ×10^3 pg/mL
same,IC50,ATN-1,440 nM
same,IC50,OCI-LY-19,480 nM
same,IC50,SU-DHL-6,360 nM
same,IC50,Ramos,1100 nM
same,IC50,TL-SU,2130 nM
same,IC50,DB,570 nM
same,IC50,MT-2,520 nM
same,IC50,MT-4,1410 nM
same,IC50,MJ,540 nM
same,IC50,SU-DHL-8,610 nM
same,IC50,HBL1,540 nM
same,IC50,MT-1,1200 nM
same,IC50,SU-DHL-4,170 nM
same,IC50,HT,710 nM
same,IC50,Jeko-1,740 nM
same,IC50,TL-Om1,790 nM
same,IC50,OCI-LY-3,340 nM
same,IC50,KM-H2,2200 nM
same,IC50,SU-DHL-10,600 nM
same,IC50,Karpas422,660 nM
